According to ChEMBL document CHEMBL1201862, “PubChem BioAssay data set” (2004):
One block for each molecule: values may come before it. Calls of active or inactive are those of the source.

Assays:
[1] = viability loss in human Jurkat cells – cell-based, luminescence, cytotoxicity control for P. falciparum gametocyte viability project, dose response (AID 1117277); type: functional;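 also: potency reflects loss of cellular ATP meaning fewer viable cells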
[2] = viability inhibitors of stage V gametocytes – luminescence, dose response (AID 1117278); type: functional, cell-based;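 also: gametocytes exposed to compound for 24 hours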
[3] = molecular target: T1, Heat shock factor protein 1 (Mus musculus, UniProt P38532); test: enhancement of HSF1-driven luciferase signal – cell-based, NIH3T3, luminescence, dose retest, confirmation (AID 435004); type: functional;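 also: stress induced by proteasome inhibitor MG132 added 30 min after compound; luciferase reporter driven by HSF1 response element in NIH3T3 cells; actives raise luminescence as potentiators of the MG132 stress response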
T1 sequence (P38532 whole entry): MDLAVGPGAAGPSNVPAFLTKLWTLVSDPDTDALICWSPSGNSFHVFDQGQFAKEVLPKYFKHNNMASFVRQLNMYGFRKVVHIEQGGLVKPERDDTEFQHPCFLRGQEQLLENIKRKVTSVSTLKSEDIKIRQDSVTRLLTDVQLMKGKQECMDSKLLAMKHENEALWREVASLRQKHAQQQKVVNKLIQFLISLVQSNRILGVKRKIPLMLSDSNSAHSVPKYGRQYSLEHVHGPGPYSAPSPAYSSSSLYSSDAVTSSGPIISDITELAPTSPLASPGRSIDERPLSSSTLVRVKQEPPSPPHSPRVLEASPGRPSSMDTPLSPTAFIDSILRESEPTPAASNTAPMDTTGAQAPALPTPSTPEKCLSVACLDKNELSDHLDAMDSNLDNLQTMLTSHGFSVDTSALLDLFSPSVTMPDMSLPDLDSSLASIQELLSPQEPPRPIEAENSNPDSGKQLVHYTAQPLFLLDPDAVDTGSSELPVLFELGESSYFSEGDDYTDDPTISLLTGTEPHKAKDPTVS

[4] = molecular target: G-protein coupled receptor 55 (Homo sapiens, UniProt Q9Y2T6); test: inhibition of LPI-stimulated GPR55 beta-arrestin translocation – imaging, U2OS, beta-arrestin-GFP, LPI agonist, primary screen (AID 2013); type: functional;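 also: antagonist potency measured as reduced agonist-driven arrestin aggregation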
[5] = molecular target: T2, Cytochrome P450 1A2 (Homo sapiens, UniProt P05177);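 also: PubChem cytochrome P450 panel assay, CYP1A2 panel member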
T2 sequence (P05177 whole entry): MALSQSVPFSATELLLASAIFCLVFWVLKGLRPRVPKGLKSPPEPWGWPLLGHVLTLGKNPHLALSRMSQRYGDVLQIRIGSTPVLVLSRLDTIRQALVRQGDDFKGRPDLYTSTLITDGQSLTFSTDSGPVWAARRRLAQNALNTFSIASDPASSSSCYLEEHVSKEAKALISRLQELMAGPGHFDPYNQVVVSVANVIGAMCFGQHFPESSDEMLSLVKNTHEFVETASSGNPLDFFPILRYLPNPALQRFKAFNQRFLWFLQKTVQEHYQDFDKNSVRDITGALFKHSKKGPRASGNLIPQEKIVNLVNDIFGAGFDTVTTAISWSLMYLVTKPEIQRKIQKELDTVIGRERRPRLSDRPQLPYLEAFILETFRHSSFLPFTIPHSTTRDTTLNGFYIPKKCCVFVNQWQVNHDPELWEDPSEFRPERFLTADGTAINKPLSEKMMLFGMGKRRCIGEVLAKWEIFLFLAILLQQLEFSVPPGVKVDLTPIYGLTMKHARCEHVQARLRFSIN

[6] = cells; type: functional, cell-based; details: HEK-CNG
[7] = molecular target: T3, Galanin receptor type 3 (Homo sapiens, UniProt O60755); test: Fluorescence-based cell-based primary high throughput dose response assay to identify antagonists of the Galanin Receptor 3 (GalR3).; type: functional
T3 sequence (O60755 whole entry): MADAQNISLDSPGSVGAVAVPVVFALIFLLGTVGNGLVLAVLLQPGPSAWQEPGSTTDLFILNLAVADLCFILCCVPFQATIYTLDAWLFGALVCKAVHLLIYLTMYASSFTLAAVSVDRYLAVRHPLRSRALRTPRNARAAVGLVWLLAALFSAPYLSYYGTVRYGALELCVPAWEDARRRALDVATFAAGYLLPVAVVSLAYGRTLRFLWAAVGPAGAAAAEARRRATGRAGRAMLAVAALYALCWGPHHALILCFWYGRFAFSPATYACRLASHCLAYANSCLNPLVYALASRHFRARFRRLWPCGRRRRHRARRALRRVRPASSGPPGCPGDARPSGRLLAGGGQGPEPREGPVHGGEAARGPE

[8] = system: INS1; test: INS-1E survival protection against cytokine death – cell-based, luminescence, retest, dose response (AID 449756); type: functional; details: Rattus norvegicus;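 also: cell death triggered by IL-1 beta plus TNF-alpha plus IFN-gamma mixture; protective hits raise ATP signal compared with cytokine alone wells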
[9] = HEK-293T viability loss, compound-treated – cell-based, uHTS hits, cytotoxicity control for B/T-cell NF-kB inhibitor project, dose response (AID 489019); type: functional;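 also: IC50 reflects cytotoxicity as loss of cell viability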
[10] = loss of viability in HepG2 cells – cell-based, CellTiter-Glo, cherry-picked, cytotoxicity control for Shn3 inhibitor project, dose response (AID 624134); type: functional
[11] = non-specific 3'UTR reporter inhibition in Clone20-Shn3RL – cell-based, Renilla luciferase, cherry-picked, counter-screen for Shn3 inhibitor project, dose response (AID 624133); type: functional
[12] = molecular target: T4, COUP transcription factor 2 (Homo sapiens, UniProt P24468); test: Luminescence-based cell-based high throughput dose response assay to identify inhibitors of COUP-TFII (NR2F2).; type: functional;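 also: HEK293 cells transiently cotransfected with COUP-TFII expression vector and reporter; luciferase reporter luminescence driven by COUP-TFII from the pX2-168 reporter plasmid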
T4 sequence (P24468 whole entry): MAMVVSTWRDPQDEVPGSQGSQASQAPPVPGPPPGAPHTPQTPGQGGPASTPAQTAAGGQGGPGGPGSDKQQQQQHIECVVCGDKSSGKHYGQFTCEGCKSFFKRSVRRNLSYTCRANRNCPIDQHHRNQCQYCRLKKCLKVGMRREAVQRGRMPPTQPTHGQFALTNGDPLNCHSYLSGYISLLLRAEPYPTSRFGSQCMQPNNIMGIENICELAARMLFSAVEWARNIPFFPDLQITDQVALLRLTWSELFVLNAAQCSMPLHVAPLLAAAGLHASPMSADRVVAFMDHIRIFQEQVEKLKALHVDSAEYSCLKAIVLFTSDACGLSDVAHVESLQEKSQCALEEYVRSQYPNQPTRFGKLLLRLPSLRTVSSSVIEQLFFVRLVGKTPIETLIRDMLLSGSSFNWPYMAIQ

[13] = system: Jurkat; test: blockers of NF-kB activation in T cells – Jurkat, luciferase reporter, luminescence, B- and T-cell, dose response (AID 489004); type: functional, cell-based; details: Homo sapiens;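 also: NF-kB luciferase reporter Jurkat cells stimulated with PMA plus ionomycin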
[14] = reduction of Shn3 3'UTR-driven luciferase in osteoblasts – cell-based, Clone20 osteoblasts, firefly luciferase, cherry-picked, dose response (AID 624132); type: functional;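 also: firefly luciferase luminescence from reporter carrying the Shn3 3'UTR in osteoblasts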
[15] = molecular target: Peroxisome proliferator-activated receptor gamma/Nuclear receptor coactivator 2 (Homo sapiens, UniProt P37231); test: (§1) TR-FRET dose response biochemical High Throughput Screening assay for agonists of the steroid receptor coactivator 2 (SRC-2) recruitment by the peroxisome proliferator-activated receptor gamma (PPAR gamma): non-selective agonists. [Related pubchem assays: 1297, 1032 ]; type: functional
[16] = molecular target: 5-hydroxytryptamine receptor 2A (Mus musculus, UniProt P35363); type: functional, cell-based;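 also: CHO-K1 cells with tagged receptor and beta-arrestin; agonist potency measured as compound-induced activation of the receptor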
[17] = molecular target: Mu-type opioid receptor (Homo sapiens, UniProt P35372); type: functional, cell-based;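 also: U2OS cells with beta-arrestin recruitment to OPRM1 by beta-gal complementation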
[18] = molecular target: T5, Ubiquitin-conjugating enzyme E2 N (Homo sapiens, UniProt P61088); type: functional;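 also: Dose-response confirmation in a TR-FRET assay detecting UBC13-driven polyubiquitin chain formation, inhibition measured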
T5 sequence (P61088 whole entry): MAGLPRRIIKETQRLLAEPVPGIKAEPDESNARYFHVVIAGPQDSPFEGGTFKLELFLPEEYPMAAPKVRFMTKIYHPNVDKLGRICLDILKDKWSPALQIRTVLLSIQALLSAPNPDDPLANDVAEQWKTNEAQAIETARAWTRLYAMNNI

[19] = molecular target: Peroxisome proliferator-activated receptor gamma/Nuclear receptor coactivator 3 (Homo sapiens, UniProt P37231); test: as §1, with “3 (SRC-3)” for “2 (SRC-2)”, “1301 (Confirmation screen.), 1048 (Primary screen.)]” for “1297, 1032 ]”; type: functional
[20] = molecular target: Peroxisome proliferator-activated receptor gamma/Nuclear receptor coactivator 1 (Homo sapiens, UniProt P37231); test: as §1, with “1 (SRC-1)” for “2 (SRC-2)”, “assays (depositor defined):AID1300, AID1808, AID504735, AID631]” for “assays: 1297, 1032 ]”; type: protein assay
[21] = molecular target: Troponin, cardiac muscle (Homo sapiens, UniProt P19429+P45379+P63316); test: Fluorescence-based biochemical high throughput dose response assay for activators of the calcium sensitivity of cardiac Regulated Thin Filaments (RTF). [Related pubchem assays (depositor defined):AID493008, AID493018, AID504382, AID504383]; type: protein-complex assay

Sequence of Mu-type opioid receptor (P35372 whole entry): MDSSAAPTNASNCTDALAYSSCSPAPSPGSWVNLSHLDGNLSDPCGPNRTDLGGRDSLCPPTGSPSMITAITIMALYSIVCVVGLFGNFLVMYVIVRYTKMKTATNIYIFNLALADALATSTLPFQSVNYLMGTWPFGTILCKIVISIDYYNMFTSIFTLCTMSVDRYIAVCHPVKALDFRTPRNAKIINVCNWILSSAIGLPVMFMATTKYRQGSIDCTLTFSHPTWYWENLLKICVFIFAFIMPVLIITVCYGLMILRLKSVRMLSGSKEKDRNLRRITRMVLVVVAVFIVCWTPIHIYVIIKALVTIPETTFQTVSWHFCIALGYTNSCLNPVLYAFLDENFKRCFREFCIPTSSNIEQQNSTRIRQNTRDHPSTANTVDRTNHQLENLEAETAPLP
Sequence of 5-hydroxytryptamine receptor 2A (P35363 whole entry): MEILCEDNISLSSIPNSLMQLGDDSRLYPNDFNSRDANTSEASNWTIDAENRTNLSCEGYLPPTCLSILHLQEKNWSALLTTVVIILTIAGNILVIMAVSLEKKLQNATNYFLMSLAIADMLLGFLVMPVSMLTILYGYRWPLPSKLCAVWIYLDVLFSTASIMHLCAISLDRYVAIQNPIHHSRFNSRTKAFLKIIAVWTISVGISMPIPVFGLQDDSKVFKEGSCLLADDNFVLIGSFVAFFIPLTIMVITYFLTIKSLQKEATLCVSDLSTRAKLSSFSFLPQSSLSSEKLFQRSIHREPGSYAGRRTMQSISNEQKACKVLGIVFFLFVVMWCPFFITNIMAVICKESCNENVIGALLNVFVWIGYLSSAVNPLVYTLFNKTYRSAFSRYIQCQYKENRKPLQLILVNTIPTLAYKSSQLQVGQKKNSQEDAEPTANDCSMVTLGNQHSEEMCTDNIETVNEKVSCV
Sequence of G-protein coupled receptor 55 (Q9Y2T6 whole entry): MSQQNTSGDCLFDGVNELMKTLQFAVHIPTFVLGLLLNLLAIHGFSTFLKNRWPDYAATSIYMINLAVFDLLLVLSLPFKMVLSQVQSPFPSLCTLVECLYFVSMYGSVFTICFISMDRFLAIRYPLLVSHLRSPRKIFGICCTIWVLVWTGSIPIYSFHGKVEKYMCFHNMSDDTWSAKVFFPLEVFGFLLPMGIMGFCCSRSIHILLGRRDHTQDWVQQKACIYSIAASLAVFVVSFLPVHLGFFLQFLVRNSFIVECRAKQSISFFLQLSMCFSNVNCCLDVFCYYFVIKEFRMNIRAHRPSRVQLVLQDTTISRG
Sequence of Peroxisome proliferator-activated receptor gamma/Nuclear receptor coactivator 3 (P37231 whole entry): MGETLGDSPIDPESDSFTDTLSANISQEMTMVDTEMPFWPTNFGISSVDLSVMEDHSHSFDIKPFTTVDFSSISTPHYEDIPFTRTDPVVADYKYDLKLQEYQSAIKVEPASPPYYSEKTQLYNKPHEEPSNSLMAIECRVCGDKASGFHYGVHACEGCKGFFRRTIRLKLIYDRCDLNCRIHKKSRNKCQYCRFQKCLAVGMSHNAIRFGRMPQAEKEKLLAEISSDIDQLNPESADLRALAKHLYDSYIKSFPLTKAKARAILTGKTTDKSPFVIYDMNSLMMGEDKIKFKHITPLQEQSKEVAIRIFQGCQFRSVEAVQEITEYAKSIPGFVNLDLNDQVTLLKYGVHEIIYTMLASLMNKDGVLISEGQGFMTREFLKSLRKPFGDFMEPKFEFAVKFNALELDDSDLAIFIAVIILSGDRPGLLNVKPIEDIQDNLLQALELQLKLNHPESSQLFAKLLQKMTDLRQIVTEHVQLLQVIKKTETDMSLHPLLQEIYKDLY
Sequence of Peroxisome proliferator-activated receptor gamma/Nuclear receptor coactivator 3 (Q9Y6Q9 whole entry, further chain): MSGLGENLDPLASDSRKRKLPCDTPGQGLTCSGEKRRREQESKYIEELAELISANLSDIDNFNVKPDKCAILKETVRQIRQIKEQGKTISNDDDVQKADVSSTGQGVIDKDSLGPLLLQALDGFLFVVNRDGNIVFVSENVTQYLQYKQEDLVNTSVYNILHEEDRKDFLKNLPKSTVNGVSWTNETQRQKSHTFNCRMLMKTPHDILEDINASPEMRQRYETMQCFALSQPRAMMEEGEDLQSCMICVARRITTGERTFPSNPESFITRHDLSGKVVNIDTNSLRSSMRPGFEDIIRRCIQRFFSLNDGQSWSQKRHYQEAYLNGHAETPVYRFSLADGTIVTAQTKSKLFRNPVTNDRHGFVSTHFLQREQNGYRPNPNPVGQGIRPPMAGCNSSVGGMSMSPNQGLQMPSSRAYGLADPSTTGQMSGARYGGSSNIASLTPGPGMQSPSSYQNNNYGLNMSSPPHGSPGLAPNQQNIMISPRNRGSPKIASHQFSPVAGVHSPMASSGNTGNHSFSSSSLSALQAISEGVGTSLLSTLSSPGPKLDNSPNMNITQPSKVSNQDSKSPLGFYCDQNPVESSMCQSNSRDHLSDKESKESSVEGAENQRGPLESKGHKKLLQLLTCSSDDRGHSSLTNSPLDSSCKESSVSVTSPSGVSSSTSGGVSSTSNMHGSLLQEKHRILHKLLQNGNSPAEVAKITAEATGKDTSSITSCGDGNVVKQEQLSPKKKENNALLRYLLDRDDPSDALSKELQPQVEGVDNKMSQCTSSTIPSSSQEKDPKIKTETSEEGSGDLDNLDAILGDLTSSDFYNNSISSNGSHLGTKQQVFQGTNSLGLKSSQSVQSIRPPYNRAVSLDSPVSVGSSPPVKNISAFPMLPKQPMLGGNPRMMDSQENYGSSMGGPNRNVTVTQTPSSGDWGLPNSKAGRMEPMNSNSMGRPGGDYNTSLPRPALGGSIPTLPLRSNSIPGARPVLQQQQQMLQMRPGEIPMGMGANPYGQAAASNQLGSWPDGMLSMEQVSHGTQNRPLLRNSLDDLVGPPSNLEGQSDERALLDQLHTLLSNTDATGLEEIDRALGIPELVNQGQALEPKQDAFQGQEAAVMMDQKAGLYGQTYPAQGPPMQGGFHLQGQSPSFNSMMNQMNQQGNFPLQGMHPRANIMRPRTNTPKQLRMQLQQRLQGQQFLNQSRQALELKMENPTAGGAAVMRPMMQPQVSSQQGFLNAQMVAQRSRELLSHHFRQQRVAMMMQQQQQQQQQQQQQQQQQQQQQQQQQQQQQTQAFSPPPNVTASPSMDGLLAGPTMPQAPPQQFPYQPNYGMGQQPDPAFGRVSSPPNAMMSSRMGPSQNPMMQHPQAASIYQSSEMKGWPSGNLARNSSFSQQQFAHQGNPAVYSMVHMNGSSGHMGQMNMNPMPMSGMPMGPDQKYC
Sequence of Peroxisome proliferator-activated receptor gamma/Nuclear receptor coactivator 1 (P37231 whole entry): as the sequence (P37231 whole entry) above
Sequence of Peroxisome proliferator-activated receptor gamma/Nuclear receptor coactivator 1 (Q15788 whole entry, further chain): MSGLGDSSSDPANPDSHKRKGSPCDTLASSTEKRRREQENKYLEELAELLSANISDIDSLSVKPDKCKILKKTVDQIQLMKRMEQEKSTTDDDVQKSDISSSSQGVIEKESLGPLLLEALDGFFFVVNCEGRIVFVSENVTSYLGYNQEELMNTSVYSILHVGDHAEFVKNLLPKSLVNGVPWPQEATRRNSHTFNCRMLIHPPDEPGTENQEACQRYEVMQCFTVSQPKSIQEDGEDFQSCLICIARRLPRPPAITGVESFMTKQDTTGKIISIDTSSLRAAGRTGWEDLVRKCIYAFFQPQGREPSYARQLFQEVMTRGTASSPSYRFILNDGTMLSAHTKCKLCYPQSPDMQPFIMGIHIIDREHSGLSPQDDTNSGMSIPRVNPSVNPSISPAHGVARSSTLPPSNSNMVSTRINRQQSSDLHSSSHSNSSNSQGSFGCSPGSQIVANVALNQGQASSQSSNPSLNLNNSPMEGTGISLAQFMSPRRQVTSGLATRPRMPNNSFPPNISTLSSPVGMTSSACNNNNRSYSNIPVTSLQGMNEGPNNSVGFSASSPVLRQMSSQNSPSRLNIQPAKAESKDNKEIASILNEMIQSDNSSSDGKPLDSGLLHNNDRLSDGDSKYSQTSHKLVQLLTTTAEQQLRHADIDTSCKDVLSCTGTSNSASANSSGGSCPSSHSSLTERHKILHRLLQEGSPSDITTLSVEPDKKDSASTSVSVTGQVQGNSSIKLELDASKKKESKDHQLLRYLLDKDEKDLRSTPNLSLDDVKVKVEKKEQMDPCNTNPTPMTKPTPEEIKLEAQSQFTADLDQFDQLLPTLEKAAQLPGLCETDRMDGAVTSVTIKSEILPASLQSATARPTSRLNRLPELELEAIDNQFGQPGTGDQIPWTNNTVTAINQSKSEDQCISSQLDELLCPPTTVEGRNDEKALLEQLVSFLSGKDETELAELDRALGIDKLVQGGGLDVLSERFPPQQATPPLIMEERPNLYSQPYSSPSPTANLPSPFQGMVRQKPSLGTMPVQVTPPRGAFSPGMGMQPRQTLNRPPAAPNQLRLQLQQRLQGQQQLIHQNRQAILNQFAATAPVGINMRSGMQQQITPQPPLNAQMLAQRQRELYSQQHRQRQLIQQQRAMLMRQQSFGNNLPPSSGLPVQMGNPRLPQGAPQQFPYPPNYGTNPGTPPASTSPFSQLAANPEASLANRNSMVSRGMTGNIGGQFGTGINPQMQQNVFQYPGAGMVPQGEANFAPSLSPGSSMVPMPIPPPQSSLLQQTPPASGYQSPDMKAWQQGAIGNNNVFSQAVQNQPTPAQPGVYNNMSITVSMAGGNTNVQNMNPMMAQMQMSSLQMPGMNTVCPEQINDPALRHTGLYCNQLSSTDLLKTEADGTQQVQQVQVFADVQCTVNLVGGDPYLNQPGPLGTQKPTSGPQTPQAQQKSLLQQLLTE

SMILES: N#CCC(=O)Nc1ccc(C(=O)OCC(=O)Nc2ccccc2Sc2ccccc2)cc1
IC50 [1]: > 83.3 µM (inactive)
IC50 [2]: > 109 µM (inactive)
EC50 [3]: > 260 µM (inactive)
IC50 [4]: 2.17 µM (active)

SMILES: COc1ccc(C(=O)N2CCC3(CCCN(C(=O)NC(C)C)C3)CC2)cc1
AC50 [5]: inactive

SMILES: CCOc1cc(S(=O)(=O)NCc2ccncc2)ccc1Cl
EC50 [6]: > 29.9 µM (inactive)
IC50 [7]: 0.581 µM (active)
AC50 [8]: 0.848 µM (active)
IC50 [9]: > 80 µM (inactive)
AC50 [10]: 0.45 µM (active)
AC50 [11]: < 0.26 µM (active)
IC50 [12]: 2.29 µM (active)
IC50 [13]: > 80 µM (inactive)
AC50 [14]: < 0.26 µM (active)

EC50 [15]: > 79.4 µM (not active)
EC50 [16]: 0.0169 µM (active)
EC50 [17]: 92.6 µM (inactive)
IC50 [18]: > 20 µM (inactive)
EC50 [19]: > 79.4 µM (not active)
EC50 [20]: > 79.4 µM (inactive)
SMILES: CCn1c(=O)cc(SCC(=O)NCCCN2CCN(c3ccccc3F)CC2)c2ccccc21

EC50 [21]: 11.1 µM (inactive)
SMILES: CCOC(=O)c1sc(N)c(C#N)c1COC(=O)CNC(=O)c1cc(OC)c(OC)c(OC)c1
